Measurements: PubChem BioAssay (NCI)
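These data come from cells grown in 96-well plates and exposed to compound for 48 hours at five concentrations. GI50 marks 50% less growth. The concentration for full growth arrest is given as TGI.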

Tests used:
Assay in all cases: growth of human tumour cells (NCI), 48 h
786-0 renal = system: 786-0 renal
A498 renal = system: A498 renal
A549 NSCLC = system: A549 NSCLC
ACHN renal = system: ACHN renal
BT-549 breast = system: BT-549 breast
CAKI-1 renal = system: CAKI-1 renal
CCRF-CEM leukemia = system: CCRF-CEM leukemia
COLO 205 colon = system: COLO 205 colon
DU-145 prostate = system: DU-145 prostate
EKVX NSCLC = system: EKVX NSCLC
HCC-2998 colon = system: HCC-2998 colon
HCT-116 colon = system: HCT-116 colon
HCT-15 colon = system: HCT-15 colon
HL-60(TB) leukemia = system: HL-60(TB) leukemia
HOP-62 NSCLC = system: HOP-62 NSCLC
HOP-92 NSCLC = system: HOP-92 NSCLC
HS 578T breast = system: HS 578T breast
HT29 colon = system: HT29 colon
IGROV1 ovarian = system: IGROV1 ovarian
K-562 leukemia = system: K-562 leukemia
KM12 colon = system: KM12 colon
LOX IMVI melanoma = system: LOX IMVI melanoma
M14 melanoma = system: M14 melanoma
MALME-3M melanoma = system: MALME-3M melanoma
MCF7 breast = system: MCF7 breast
MDA-MB-231 breast = system: MDA-MB-231 breast
MDA-MB-435 = system: MDA-MB-435
MOLT-4 leukemia = system: MOLT-4 leukemia
NCI-H226 lung = system: NCI-H226 lung
NCI-H23 lung = system: NCI-H23 lung
NCI-H460 lung = system: NCI-H460 lung
NCI-H522 lung = system: NCI-H522 lung
NCI/ADR-RES ovarian = system: NCI/ADR-RES ovarian
OVCAR-3 ovarian = system: OVCAR-3 ovarian
OVCAR-4 ovarian = system: OVCAR-4 ovarian
OVCAR-5 ovarian = system: OVCAR-5 ovarian
OVCAR-8 ovarian = system: OVCAR-8 ovarian
PC-3 prostate = system: PC-3 prostate
RPMI-8226 leukemia = system: RPMI-8226 leukemia
RXF 393 renal = system: RXF 393 renal
SF-268 CNS = system: SF-268 CNS
SF-295 CNS = system: SF-295 CNS
SF-539 CNS = system: SF-539 CNS
SK-MEL-2 melanoma = system: SK-MEL-2 melanoma
SK-MEL-28 melanoma = system: SK-MEL-28 melanoma
SK-MEL-5 melanoma = system: SK-MEL-5 melanoma
SK-OV-3 ovarian = system: SK-OV-3 ovarian
SN12C renal = system: SN12C renal
SNB-19 CNS = system: SNB-19 CNS
SNB-75 CNS = system: SNB-75 CNS
SR leukemia = system: SR leukemia
SW-620 colon = system: SW-620 colon
T-47D breast = system: T-47D breast
TK-10 renal = system: TK-10 renal
U251 CNS = system: U251 CNS
UACC-257 melanoma = system: UACC-257 melanoma
UACC-62 melanoma = system: UACC-62 melanoma
UO-31 renal = system: UO-31 renal

For NS(=O)(=O)c1ccc(N=Nc2c(O)[nH]c3ccc(Cl)cc23)cc1, which GI50 (786-0 renal) is on record?
The GI50 was 8.42 µM.

And the TGI (786-0 renal)?
Its TGI is over 20.3 µM.

What about the GI50 (A498 renal) of the same compound?
Its GI50 is over 22 µM.

And the TGI (A498 renal)?
The TGI was over 25 µM.

And the GI50 (A549 NSCLC)?
The GI50 was 11.3 µM.

What about the TGI (A549 NSCLC) of the same compound?
Its TGI is over 25 µM.

And the GI50 (ACHN renal)?
The GI50 was 9.95 µM.

What about the TGI (ACHN renal) of the same compound?
Its TGI is over 25 µM.

And the GI50 (BT-549 breast)?
Its GI50 is over 16.9 µM.

What about the TGI (BT-549 breast) of the same compound?
The TGI was over 25 µM.

And the GI50 (CAKI-1 renal)?
The GI50 was over 17.9 µM.

And the TGI (CAKI-1 renal)?
Its TGI is over 25 µM.

What about the GI50 (CCRF-CEM leukemia) of the same compound?
Its GI50 is over 7.22 µM.

And the TGI (CCRF-CEM leukemia)?
The TGI was over 25 µM.

And the GI50 (COLO 205 colon)?
Its GI50 is over 25 µM.

What about the TGI (COLO 205 colon) of the same compound?
Its TGI is over 25 µM.

What about the GI50 (DU-145 prostate) of the same compound?
Its GI50 is 15.5 µM.

And the TGI (DU-145 prostate)?
The TGI was over 25 µM.

And the GI50 (EKVX NSCLC)?
Its GI50 is over 25 µM.

And the TGI (EKVX NSCLC)?
Its TGI is over 25 µM.

And the GI50 (HCC-2998 colon)?
The GI50 was 18.3 µM.

What about the TGI (HCC-2998 colon) of the same compound?
Its TGI is over 25 µM.

And the GI50 (HCT-116 colon)?
Its GI50 is 7.04 µM.

What about the TGI (HCT-116 colon) of the same compound?
The TGI was over 16.9 µM.

What about the GI50 (HCT-15 colon) of the same compound?
Its GI50 is over 22.1 µM.

And the TGI (HCT-15 colon)?
Its TGI is over 25 µM.

What about the GI50 (HL-60(TB) leukemia) of the same compound?
The GI50 was over 25 µM.

And the TGI (HL-60(TB) leukemia)?
Its TGI is over 25 µM.

What about the GI50 (HOP-62 NSCLC) of the same compound?
Its GI50 is 13.4 µM.

And the TGI (HOP-62 NSCLC)?
The TGI was over 25 µM.

What about the GI50 (HOP-92 NSCLC) of the same compound?
Its GI50 is over 9.61 µM.

And the TGI (HOP-92 NSCLC)?
Its TGI is over 25 µM.

What about the GI50 (HS 578T breast) of the same compound?
Its GI50 is 11.6 µM.

And the TGI (HS 578T breast)?
The TGI was over 25 µM.

And the GI50 (HT29 colon)?
Its GI50 is over 18.9 µM.

What about the TGI (HT29 colon) of the same compound?
Its TGI is over 25 µM.

And the GI50 (IGROV1 ovarian)?
Its GI50 is over 19.6 µM.

What about the TGI (IGROV1 ovarian) of the same compound?
The TGI was over 25 µM.

And the GI50 (K-562 leukemia)?
Its GI50 is over 25 µM.

What about the TGI (K-562 leukemia) of the same compound?
The TGI was over 25 µM.

And the GI50 (KM12 colon)?
The GI50 was 7.58 µM.

What about the TGI (KM12 colon) of the same compound?
The TGI was over 25 µM.

And the GI50 (LOX IMVI melanoma)?
Its GI50 is 9.96 µM.

What about the TGI (LOX IMVI melanoma) of the same compound?
The TGI was over 25 µM.

What about the GI50 (M14 melanoma) of the same compound?
The GI50 was over 25 µM.

And the TGI (M14 melanoma)?
Its TGI is over 25 µM.

And the GI50 (MALME-3M melanoma)?
The GI50 was 20.7 µM.

What about the TGI (MALME-3M melanoma) of the same compound?
The TGI was over 25 µM.

And the GI50 (MCF7 breast)?
The GI50 was 12.2 µM.

And the TGI (MCF7 breast)?
Its TGI is over 25 µM.

And the GI50 (MDA-MB-231 breast)?
The GI50 was 8.86 µM.

And the TGI (MDA-MB-231 breast)?
Its TGI is over 25 µM.

What about the GI50 (MDA-MB-435) of the same compound?
Its GI50 is over 25 µM.

What about the TGI (MDA-MB-435) of the same compound?
The TGI was over 25 µM.

What about the GI50 (MOLT-4 leukemia) of the same compound?
The GI50 was over 25 µM.

What about the TGI (MOLT-4 leukemia) of the same compound?
Its TGI is over 25 µM.

What about the GI50 (NCI-H226 lung) of the same compound?
The GI50 was 13.6 µM.

And the TGI (NCI-H226 lung)?
Its TGI is over 25 µM.

What about the GI50 (NCI-H23 lung) of the same compound?
Its GI50 is 14 µM.

And the TGI (NCI-H23 lung)?
The TGI was over 25 µM.

And the GI50 (NCI-H460 lung)?
The GI50 was 8.62 µM.

What about the TGI (NCI-H460 lung) of the same compound?
The TGI was over 25 µM.

And the GI50 (NCI-H522 lung)?
Its GI50 is 5.38 µM.

And the TGI (NCI-H522 lung)?
Its TGI is over 25 µM.

What about the GI50 (NCI/ADR-RES ovarian) of the same compound?
Its GI50 is 24.5 µM.

What about the TGI (NCI/ADR-RES ovarian) of the same compound?
Its TGI is over 25 µM.

What about the GI50 (OVCAR-3 ovarian) of the same compound?
Its GI50 is 4.87 µM.

And the TGI (OVCAR-3 ovarian)?
Its TGI is 14.2 µM.

What about the GI50 (OVCAR-4 ovarian) of the same compound?
The GI50 was over 21.9 µM.

What about the TGI (OVCAR-4 ovarian) of the same compound?
Its TGI is over 25 µM.

And the GI50 (OVCAR-5 ovarian)?
The GI50 was over 25 µM.

What about the TGI (OVCAR-5 ovarian) of the same compound?
Its TGI is over 25 µM.

And the GI50 (OVCAR-8 ovarian)?
Its GI50 is 12.9 µM.

And the TGI (OVCAR-8 ovarian)?
The TGI was over 25 µM.

And the GI50 (PC-3 prostate)?
The GI50 was over 25 µM.

And the TGI (PC-3 prostate)?
The TGI was over 25 µM.

What about the GI50 (RPMI-8226 leukemia) of the same compound?
Its GI50 is over 25 µM.

What about the TGI (RPMI-8226 leukemia) of the same compound?
Its TGI is over 25 µM.

What about the GI50 (RXF 393 renal) of the same compound?
The GI50 was 12.9 µM.

What about the TGI (RXF 393 renal) of the same compound?
The TGI was over 25 µM.

What about the GI50 (SF-268 CNS) of the same compound?
Its GI50 is 17.6 µM.

And the TGI (SF-268 CNS)?
Its TGI is over 25 µM.

And the GI50 (SF-295 CNS)?
Its GI50 is over 25 µM.

And the TGI (SF-295 CNS)?
Its TGI is over 25 µM.

And the GI50 (SF-539 CNS)?
The GI50 was 5.29 µM.

And the TGI (SF-539 CNS)?
The TGI was over 21.9 µM.

What about the GI50 (SK-MEL-2 melanoma) of the same compound?
Its GI50 is over 18.3 µM.

What about the TGI (SK-MEL-2 melanoma) of the same compound?
The TGI was over 25 µM.

What about the GI50 (SK-MEL-28 melanoma) of the same compound?
The GI50 was over 25 µM.

And the TGI (SK-MEL-28 melanoma)?
Its TGI is over 25 µM.

And the GI50 (SK-MEL-5 melanoma)?
Its GI50 is 16.1 µM.

And the TGI (SK-MEL-5 melanoma)?
The TGI was over 25 µM.

What about the GI50 (SK-OV-3 ovarian) of the same compound?
The GI50 was 6.73 µM.

And the TGI (SK-OV-3 ovarian)?
The TGI was 14.5 µM.

And the GI50 (SN12C renal)?
The GI50 was 17.2 µM.

What about the TGI (SN12C renal) of the same compound?
Its TGI is over 25 µM.

What about the GI50 (SNB-19 CNS) of the same compound?
Its GI50 is over 25 µM.

And the TGI (SNB-19 CNS)?
Its TGI is over 25 µM.

And the GI50 (SNB-75 CNS)?
Its GI50 is 8.66 µM.

What about the TGI (SNB-75 CNS) of the same compound?
The TGI was 24.9 µM.

And the GI50 (SR leukemia)?
Its GI50 is 6.13 µM.

And the TGI (SR leukemia)?
Its TGI is over 25 µM.

What about the GI50 (SW-620 colon) of the same compound?
The GI50 was over 22.4 µM.

What about the TGI (SW-620 colon) of the same compound?
The TGI was over 25 µM.

And the GI50 (T-47D breast)?
The GI50 was over 25 µM.

And the TGI (T-47D breast)?
Its TGI is over 25 µM.

What about the GI50 (TK-10 renal) of the same compound?
Its GI50 is 5.78 µM.

What about the TGI (TK-10 renal) of the same compound?
The TGI was over 23 µM.

What about the GI50 (U251 CNS) of the same compound?
The GI50 was 6.64 µM.

And the TGI (U251 CNS)?
The TGI was over 25 µM.

What about the GI50 (UACC-257 melanoma) of the same compound?
The GI50 was over 25 µM.

What about the TGI (UACC-257 melanoma) of the same compound?
The TGI was over 25 µM.

And the GI50 (UACC-62 melanoma)?
Its GI50 is over 15.2 µM.

What about the TGI (UACC-62 melanoma) of the same compound?
Its TGI is over 25 µM.

What about the GI50 (UO-31 renal) of the same compound?
The GI50 was 6.46 µM.

What about the TGI (UO-31 renal) of the same compound?
Its TGI is over 20.6 µM.
